Results: patent publication US8586307B2, “Methods for diagnosing epigenetic, transgenerational effects of environmental toxicants on mammalian germ-lines and treating associated diseases” (priority 2005, dated 2013)

How the values were obtained:
spermatogenic cells = experiment: Spermatogenic cell apoptosis in testis sections (TUNEL) after transient embryonic exposure; details: rat, in vivo
Protocol: (§1) In Vivo Procedures: Gestating outbred Sprague-Dawley and inbred Fisher mother rats from timed, pregnant colonies housed at the Washington State University Vivarium, were given intraperitoneal injections of vinclozolin (100 mg/kg/day) and methoxychlor (200 mg/kg/day) from embryonic day 8-15 (E8-E15, sperm positive vaginal smear date=E0) of gestation (F0 generation) as previously described. Gestating mothers administered vehicle, sesame oil or DMSO, served as controls. At least 6 lines (individual F0 injected females) were generated for controls and treated groups for these analyses. Male rats from control and treated groups were collected at P60-P180 for analyses. F1 treated males were bred to F1 treated females to generate the F2 treated generation and F2 treated males were bred to F2 treated females to generate the F3 generation and the F3 were bred in the same manner to generate the F4 generation. Rats for the control groups were bred in the same manner for all the generations. No inbreeding or sibling crosses were generated. The outcross group (VOC) were generated by breeding the F2 treated males with wild-type females (total of 6 litters) and reverse outcross group (RVOC) was generated by breeding F2 treated females with wild-type males (total of 3 litters). Control (n=4) and treated (n=4) male offspring from the F1 generation from Fisher strain rats were collected at P6 for DNA methylation analysis, see below. All procedures have been approved by the Washington State University Animal Care Committee. The number of animals used for replicates in the experiments (i.e. n value) are as follows for vinclozolin treatment: F1 (control 11, treated 12); F2 (control 19, treated 30); F3 (control 19, treated 26); F4 (control 10, treated 17); VOC (18); and RVOC (6). […]
Detection of Cell Apoptosis: To detect apoptotic cells in testis sections, the Fluorescien In Situ Cell Death Detection Kit (Roche Applied Science, Indianapolis, Ind.) was utilized. […] Fluorescent apoptotic cells were imaged on a confocal microscope and quantitation of number of apoptotic cells per testis cross section. […]

epididymal sperm = details: rat, in vivo
Protocol: as §1, with “Committee.” for “Committee. The number of animals used for replicates in the experiments (i.e. n value) are as follows for vinclozolin treatment: F1 (control 11, treated 12); F2 (control 19, treated 30); F3 (control 19, treated 26); F4 (control 10, treated 17); VOC (18); and RVOC (6).”
Sperm Motility and Concentration Analysis: Animals were sacrificed and cauda epididymal sperm motility was determined using cauda epididymal sperm. […] All the motile sperm including rapid progressive, slow progressive and non-progressive were counted according to WHO category. Percent ratio of the motile sperm to the total number of sperm including immotile sperm was calculated. Epididymal sperm count was determined using the same epididymis sample according to a previously described method with some modifications.

[1] = system: DNA isolated from P6 testis or epididymal sperm; experiment: Methylation sensitive restriction enzyme PCR (MSRE-PCR) DNA methylation analysis; type: in vivo, rat
Protocol: DNA Methylation Assays: The methylation status of DNA, isolated from control and endocrine disruptor treated P6 testis, or epididymal sperm, used a combination of methylation sensitive restriction enzymes, and a PCR approach, previously described. Briefly, isolated genomic DNA was incubated and digested with RsaI, with either methylation sensitive (HpaII), or insensitive (MspI) restriction enzymes, followed by PCR, with 10 primer sets designed to amplify methylation sites. PCR products were electrophoretically separated, and visualized by Sybr green staining (Molecular Probes, Eugene, Oreg.), and effects of endocrine disruptors, were determined by the presence or absence of specific bands. The PCR products of interest were isolated, cloned and sequenced to determine chromosomal location by BLAST Genbank analysis. P6 testis analysis was repeated using 4 animals from different litters.
DNA methylation assay: The methylation state of the DNA isolated from CDF control and vinclozolin generation epididymal sperm was determined using a combination of methylation sensitive restriction enzymes and PCR procedures (MSRE-PCR) described above in Example I. Briefly, genomic DNA was isolated from sperm samples using the DNeasy Tissue Kit (Quiagen, Valencia, Calif.). Two micrograms each of control and vinclozolin generation sperm DNA were separately digested with RsaI and either methylation-sensitive enzyme HpaII or insensitive MspI enzymes, followed by PCR with specific primer sets (Table 1). PCR products were electrophoretically separated on polyacrylamide gels and visualized by ethidium bromide staining. The PCR products (i.e. bands) that were reproducibly absent or present between control and vinclozolin generation sperm DNA were excised from stained gels, re-amplified with the same PCR primer set, and then cloned and sequenced. The DNA sequence and chromosomal location were determined using the NCBI Rat genomic databank BLAST system.
Genomic DNA and Methylation Sensitive Restriction Enzyme PCR: Genomic DNA was isolated from the different control and vinclozolin F1-F3 generation epididymal sperm samples. A total of 1 μg of genomic DNA was digested using methylation-sensitive HpaII or AciI enzymes (37° C., 6-12 hr). The digested DNA was precipitated and dissolved in 30 μl of dH2O. Then, 3 μl aliquots were analyzed by PCR in 30 μl reactions with specific primers (Table 1), subjected to 25 cycles, and the PCR products electrophoretically separated on 1.5% agarose. The differences between the control and vinclozolin F1-F3 generation sperm samples were determined for selected genes found to have high optimal digestion capacity.

NCAM1 = experiment: Semi-quantitative PCR of NCAM1 expression in adult brain; type: in vivo, rat; details: F3 generation males vs control
Protocol: The expression of one of the known genes nearest an altered methylation site identified candidate #1 (NCAM1), is primarily brain specific. An analysis of gene expression for NCAM in the brain was performed. Brains from adult control and vinclozolin F3 generation males were isolated, and RNA was prepared. Four control and five vinclozolin F3 generation animals were analyzed separately. […] This decreased expression of NCAM1 was quantitated, and over a 10-fold reduction in expression was observed between control and vinclozolin F3 generation males, FIG. 15C. Therefore, the hypermethylation of the candidate #1 site in sperm DNA was associated with a reduction in NCAM1 expression in the adult male brain, in vinclozolin F3 generation animals.

## C=CC1(C)OC(=O)N(c2cc(Cl)cc(Cl)c2)C1=O (stereo not shown) [vinclozolin]
Spermatogenic cells; male
  males analyzed that had the increased spermatogenic cell apoptosis: Greater than 90%
Spermatogenic cells
  effect on the spermatogenic cells in reverse outcross (RVOC): no effect
  spermatogenic cell apoptosis in outcross (VOC) males: increase
Epididymal sperm; male
  sperm forward motility reduced: approximately 20%
  sperm numbers reduced: approximately 20%
Epididymal sperm
  sperm number and motility in outcross (VOC) males: decrease
[1]; F1, F2 and F3 generation sperm DNA
  gene specific MSRE-PCR products for candidates #1, #14, #17/18, #27/28 and #33: PCR products were observed in all the vinclozolin generation sperm DNA samples, but not in the controls
[1]; F3 generation sperm DNA
  individual candidate DNA sequences with potential altered methylation sites: 25
[1]; F3 generation sperm, Fisher rats
  candidates with potential altered DNA methylation between control and vinclozolin sperm samples: 34
[1]; P6 testis, F1 males, Fisher rats, n=4
  different PCR products with apparent altered DNA methylation patterns: Approximately 25
[1]; out of 5 F3 animals
  animals with altered clone 17 (cytokine-inducible SH2 STAT-like protein gene) methylation in epididymal sperm: 2 animals
[1]; out of 8 F2 animals
  animals with altered clone 17 (cytokine-inducible SH2 STAT-like protein gene) methylation in epididymal sperm: 4 animals
NCAM1
  reduction in NCAM1 expression: > 10 fold
